Measurements: PMC11363738 (Journal of Enzyme Inhibition and Medicinal Chemistry, 2024)

Legend:
[1] = molecular target: T1, SARS-CoV-2 3CL^pro (Severe acute respiratory syndrome coronavirus 2, UniProt P0DTD1); experiment: SARS-CoV-2 3CLpro FRET activity assay (Beyotime inhibitor screening kit); format: biochemical; details: for IC50: FRET assay, averages of three independent experiments; for inhibition at 1 µM: n = 3, read-out: rate of inhibiting SARS-CoV-2 3CL^pro
T1 construct: purchased Beyotime, China P0315M

[2] = test system: SARS-CoV-2 Omicron virus BA.5; experiment: Antiviral activity in Vero E6 cells, preventive model (viral RNA by qRT-PCR); format: cell-based; details: Severe acute respiratory syndrome coronavirus 2, Vero C1008; read-out: EC50 (concentration for 50% reduction in viral infectivity), preventive model
[3] = in vitro; details: African green monkey
[4] = in vitro; details: African green monkey; remark: listed apart in the source
[5] = test system: SARS-CoV-2 Omicron virus BA.5; experiment: microbe, parasite or virus in culture; format: cell-based; details: for EC50: Severe acute respiratory syndrome coronavirus 2, Vero C1008, 96 h, ND = not detectable, inactive at 10 μM, mean ± SD, read-out: EC50, therapeutic model
[6] = Cytotoxicity against Vero E6 cells, CCK-8 assay (preventive model); details: African green monkey
[7] = Normal cytotoxicity test in Vero E6 cells, therapeutic model (Celltiter-Glo, CC plate); details: African green monkey, Vero E6 cells (uninfected)
[8] = test system: SARS-CoV-2; design: method as in PMID 34131140; details: read-out: intracellular antiviral activity EC50; cited from earlier work
[9] = test system: rats and mice; details: cited from earlier work
[10] = test system: rats and mice; design: method as in PMID 12776572; details: cited from earlier work
[11] = test system: rats and mice; design: method as in earlier work; details: cited from earlier work

`CCOC(=O)CCCCCCOc1cc(O)c2c(=O)c(O)c(-c3cc(O)c(O)c(O)c3)oc2c1` [Compound 9, Ethyl 7-((3,5-dihydroxy-4-oxo-2–(3,4,5-trihydroxyphenyl)-4H-chromen-7-yl)oxy)heptano-ate] showed an IC50 [1] of 1.68 ± 0.19 µM.
Compound `COC(=O)COc1cc(O)c2c(=O)c(O)c(-c3cc(O)c(O)c(O)c3)oc2c1` [Compound 3, Methyl 2-((3,5-dihydroxy-4-oxo-2–(3,4,5-trihydroxyphenyl)-4H-chromen-7yl)oxy)acetate] has an IC50 [1] of 0.72 ± 0.04 µM, an inhibition at 1 µM [1] greater than 50% and an EC50 [2] of 15.8 ± 0.92 µM. The CC50 [3] was greater than 100 µM and the CC50 [4] was greater than 100 µM.
For `O=c1c(O)c(-c2cc(O)c(O)c(O)c2)oc2cc(O)cc(O)c12` [Compound 2, Myricetin], the EC50 [2] was 12.2 ± 0.23 µM, the “inhibitory activity against Omicron virus, therapeutic model” value [5] was “did not have significant inhibitory activity” and the CC50 at 24 h [6] was greater than 100 µM. The CC50 at 4 days [7] was greater than 100 µM.
`CCOC(=O)CCCCCCCOc1cc(O)c2c(=O)c(O)c(-c3cc(O)c(O)c(O)c3)oc2c1` [Compound 10, Ethyl 8-((3,5-dihydroxy-4-oxo-2–(3,4,5-trihydroxyphenyl)-4H-chromen-7-yl)oxy)octan-oate] showed an IC50 [1] of 2.36 ± 0.13 µM, an EC50 [2] of 46.1 ± 4.67 µM and an EC50 [5] of 11.5 ± 3.68 µM.
For `CCOC(=O)CCCCCOc1cc(O)c2c(=O)c(O)c(-c3cc(O)c(O)c(O)c3)oc2c1` [Compound 8, Ethyl 6-((3,5-dihydroxy-4-oxo-2–(3,4,5-trihydroxyphenyl)-4H-chromen-7-yl)oxy)hexane-ate], the IC50 [1] was 1.73 ± 0.11 µM.
For `O=C1c2c(O)cc(O)cc2O[C@H](c2cc(O)c(O)c(O)c2)[C@H]1O` [Compound 1, Dihydromyricetin], the EC50 [2] is given as 21.2 ± 0.62 µM, the “inhibitory activity against Omicron virus, therapeutic model” value [5] is given as “did not have significant inhibitory activity” and the EC50 [8] is given as 13.6 µM. The “result in acute oral toxicity tests” value [9] was “negative”, the “result in long-term toxicity tests” value [10] was “negative” and the “result in genotoxicity tests” value [11] was “negative”. It also gave a CC50 at 24 h [6] greater than 100 µM and a CC50 at 4 days [7] greater than 100 µM.
Work on `CCC(CC)COC(=O)[C@H](C)N[P@](=O)(OC[C@H]1O[C@@](C#N)(c2ccc3c(N)ncnn23)[C@H](O)[C@@H]1O)Oc1ccccc1` [Remdesivir] yielded an EC50 [2] of 0.64 ± 0.12 µM, an EC50 [5] of 0.91 ± 0.39 µM and a CC50 at 24 h [6] greater than 100 µM. It also gave a CC50 at 4 days [7] of 49.7 ± 0.13 µM.
For `COC(=O)CCCOc1cc(O)c2c(=O)c(O)c(-c3cc(O)c(O)c(O)c3)oc2c1` [Compound 4, Methyl4-((3,5-dihydroxy-4-oxo-2–(3,4,5-trihydroxyphenyl)-4H-chromen-7-yl)oxy)butano-ate], the IC50 [1] was 1.26 ± 0.09 µM.
Work on `CCOC(=O)CCCOc1cc(O)c2c(=O)c(O)c(-c3cc(O)c(O)c(O)c3)oc2c1` [Compound 7, Ethyl 4-((3,5-dihydroxy-4-oxo-2–(3,4,5-trihydroxyphenyl)-4H-chromen-7-yl)oxy)butano-ate] yielded an IC50 [1] of 1.53 ± 0.14 µM.
In the case of `COC(=O)CCCCCOc1cc(O)c2c(=O)c(O)c(-c3cc(O)c(O)c(O)c3)oc2c1` [Compound 5, Methyl 6-((3,5-dihydroxy-4-oxo-2–(3,4,5-trihydroxyphenyl)-4H-chromen-7-yl)oxy) hexano-ate], the IC50 [1] is reported as 1.69 ± 0.16 µM, the EC50 [2] is reported as 37.6 ± 2.05 µM and the CC50 [3] is reported as greater than 100 µM. For the same compound, the CC50 [4] was greater than 100 µM.
In the case of `CCOC(=O)COc1cc(O)c2c(=O)c(O)c(-c3cc(O)c(O)c(O)c3)oc2c1` [Compound 6, Ethyl 2-((3,5-dihydroxy-4-oxo-2–(3,4,5-trihydroxyphenyl)-4H-chromen-7-yl)oxy)acetate], the IC50 [1] is reported as 0.95 ± 0.12 µM and the inhibition at 1 µM [1] is reported as greater than 50%.
